Data reported in patent US12383526B2, “Optimized sigma-1 agonist method of responder selection and treatment” (ANAVEX LIFE SCIENCES CORP., priority 2018, dated 2025).

What was measured:
[1] = Safety and tolerability, 57-week study; type: in vivo, human
Experimental: Part B, following immediately after Part A, was an open-label extension of the oral daily dose for an additional 52 weeks. The primary endpoint of 57-week study was to establish the safety and tolerability of the drug. Secondary endpoints aimed at establishing the relationship between dosing regimen and pharmacodynamics-exploratory efficacy outcomes of cognition and function. Cognition was assessed by the Mini Mental State Examination (MMSE), while functional abilities by the Alzheimer's Disease Co-operative Study—Activities of Daily Living Inventory (ADCS-ADL). Additional cognitive measures included the Cogstate Brief Battery (CBB), and functional measures of Electroencephalography and Event-Related Potential (EEG and ERP). Part B continued an adaptive oral administration scheme. Table 12 summarizes mean oral dose administration during the 57-week study study. Safety was evaluated by assessment of incidence and severity of adverse events, vital signs, physical examination, clinical laboratory parameters (hematology, serum chemistry and urinalysis), and electrocardiogram (data not shown).

[2] = tested on: subjects with mild-to-moderate AD; assay: KEM Formal Concept Analysis association rules (support, confidence, lift) linking patient characteristics with MMSE / ADCS-ADL response; set-up: species or system human
Excerpt: A small cohort, with the number of patient observations orders of magnitude smaller than number of attributes, constitutes an analytical challenge. In this study, an unsupervised Formal Concept Analysis method (FCA), based on Galois lattices, as implemented in the KEM software (v.3.6.2), was used to identify and rank phenotypic and genotypic biomarkers. No link is assumed in this analysis between biomarkers and outcomes, enabling a hypothesis free, data-driven, generation of all relations.
A total of 3,145,630 relations between all available features were explored. Stringent filtering excluded rules containing variables coding for the absence of DNA variants and medium RNA expression groups. Numerical filtering of rules involved the following thresholds: support (n>3), confidence (>50%), lift (≥1.2) and p-value (Fisher Exact Test or Mann-Whitney-Wilcoxon<0.05). The filtering steps led to a subset of 1,019 association rules linking clinical, genomic and transcriptomics patient characteristics with response at multiple time points. A second filtering step focused on relationships with response at week 57 only, raising […], and lift≥1.5, and excluding RNA expression, CYP variants and dose/concentration from Part A. This further reduced the number of rules to 15 associations linked to outcome as measured by Delta (with binarized discretization) or Slope of MMSE or ADCS-ADL at week 57. The 15 rules are presented in order of highest confidence and highest lift. The stringent filtering focused on relationships of response at week 57 (end of Part B), reduced the number of associations to only 15 linked to outcomes as measured by Delta or Slope MMSE or ADCS-ADL (Table 4). […] Higher concentrations improved Delta ADCS-ADL scores (p=0.03) (FIG. 2C).
The KEM® (Knowledge Extraction and Management) v 3.6.2 software was used to systematically extract relations between all variables collected. […]
P-values from two statistical tests were calculated for each association rule. […]

[3] = tested on: Alzheimer's disease / dementia patients; assay: Sigma-1 agonist responder determination and therapy, single-patient examples 6-13; type: in vivo, human; conditions: 6 months
Experimental: A person presents with diagnosed Alzheimer's disease. Their SIGMAR1 gene is analyzed to the extent that it is determined that they carry glutamine at the 2 position of the SIGMAR1 gene. This is the wildtype. They are treated with A2-73 daily with a 30 mg oral dose. For 6 months.
A person presents with diagnosed Alzheimer's disease. A cheek swab is taken and a genotype assay is performed to determine the presence of the SIGMAR1 2P genotype. By such analysis it is determined that the subject carries glutamine at the 2 position of the SigmaR1 gene receptor (protein). They are treated with ANAVEX2-73 daily with a 30 mg oral dose. For 6 months.
A person presents with diagnosed dementia. Their SIGMAR1 gene is analyzed to the extent that it is determined that they carry proline at the 2 position of the SIGMAR1 gene. They are treated with ANAVEX2-73 daily with a 80 mg oral dose in combination with 1.5 mg oral rivastigmine twice per day for 6 months.
A person presents with diagnosed Alzheimer's disease. […] They are treated with the A2-73 daily with a 30 mg oral dose. For 6 months.
A person presents with diagnosed Alzheimer's disease. […] They are treated with A2-73 daily with a 30 mg oral dose. For 6 months.
A person presents with diagnosed dementia. They carry glutamine at the 2 position of the SIGMAR1 gene. It is determined that they carry the KANSL1_p.P1010L/P304L/P946L mutation. They are treated with ANAVEX2-73 daily with a 70 mg oral dose in combination with 7 mg oral memantine daily for 6 months.

For `CN(C)CC1CCOC1(c1ccccc1)c1ccccc1.Cl` (centres unmarked) [ANAVEX2-73, tetrahydro-N,N-dimethyl-2,2-diphenyl-3-furanmethanamine hydrochloride], the “primary endpoint of safety and tolerability” value ([1]; 57-week Phase 2a AD study, 32 patients with mild to moderate AD) was “met its primary endpoint of safety and tolerability”, the “patients discontinued due to an Adverse Event (AE)” value ([1]; 57-week study, seven patients discontinued in total) was “one” and the “Confidence, High Concentration Part B -> MMSE Slope Improve” value ([2]; Week 57, Support 5, nx 8, ny 7) was 0.63. For the same compound, the “Lift, High Concentration Part B -> MMSE Slope Improve” value ([2]; Week 57, Support 5, nx 8, ny 7) was 1.88, the “increase in probability of improved MMSE outcome” value ([2]; average blood concentration above 4 ng/mL in Part B, week 57) was 1.88 fold and the disease course ([3]; Example 6: person, Alzheimer's disease, glutamine at the 2 position of SIGMAR1, 30 mg oral daily) was “stable and not progress”. For the same compound, the disease course ([3]; Example 7: person, Alzheimer's disease, glutamine at the 2 position (cheek swab genotype assay), 30 mg oral daily) was “stable and not progress”, the disease course ([3]; Example 9: person, dementia, proline at the 2 position of SIGMAR1, 80 mg oral daily in combination with 1.5 mg oral rivastigmine twice per day) was “stable and not progress” and the disease course ([3]; Example 10: person, Alzheimer's disease, no COMT rs113895332/rs61143203 mutation, 30 mg oral daily) was “stable and not progress”. The disease course ([3]; Example 11: person, Alzheimer's disease, no SIGMAR1 rs1800866, 30 mg oral daily) was “stable and not progress” and the disease course ([3]; Example 13: person, dementia, glutamine at the 2 position, KANSL1_p.P1010L/P304L/P946L mutation, 70 mg oral daily in combination with 7 mg oral memantine daily) was “stable and not progress”.
